Assay results from patent US20220323532A1, “COMPOSITIONS COMPRISING PLANT-DERIVED EXOSOME-LIKE NANOVESICLES OR EXOSOMES AND METHODS OF USE THEREOF” (priority 2021, published 2022).
Read-outs that look alike come from different tables or passages of the source.

Experiments:
skin of human subjects [1] = assay: Primary skin irritation evaluation, single 48 hour patch; format: in vivo; conditions: single application, patch 48 hours; 55 subjects; positive control
Procedure: Patches remain in place for 48 hours. […] Trained skin grading laboratory personnel removed the patch and evaluated the test sites.
Whenever feasible, the same individual does the scoring of all the subjects throughout the study and is blinded to the treatment assignments and any previous scores. • 0 no reaction (negative) • 1 erythema throughout at least ¾ of patch area • 2 erythema and induration throughout at least ¾ of patch area • 3 erythema, induration and vesicles • 4 erythema, induration and bullae • D Site discontinued • Dc Subject discontinued • DcI Subject discontinued per Investigator

skin of human subjects [2] = conditions: repeat insult patch test; positive control
Source text: To determine the irritation and sensitization (contact allergy) potential of a test material (high growth serum comprising ashwagandha exosomes/ELNs 1×10^9 or 1×10^10 after repeated application to the skin of human subjects. […]
This procedure was repeated until a series of nine (9) consecutive, 24-hour exposures had been made three (3) times a week for three (3) consecutive weeks. Prior to each reapplication, the test sites evaluated by trained laboratory personnel. […] Test sites were evaluated by trained laboratory personnel 48 and 96 hours after application. In the event of an adverse reaction, the area of erythema and edema were measured. […] Subjects were instructed to report any delayed reactions that might occur after the final reading. […]

Q: For CCCCCCCCCCCCOS(=O)(=O)[O-].[Na+] [2.0% Sodium Lauryl Sulfate Solution, Sodium Lauryl Sulfate], which “subjects with a Grade 1 reaction” value (skin of human subjects [1]) is on record?
A: 6 subjects

Q: And the “subjects with a Grade 1 reaction” value (skin of human subjects [2])?
A: 6 subjects
